Laboratory results published in patent publication US20040067540A1, “Rapid method for screening compounds for in vivo activity” (priority 2003, published 2004).

Test system: p21^WAF1/Clp1 promoter
Assay: Hollow fiber p21^WAF1/Clp1 promoter-luciferase reporter assay: light emission from Fibers with H1299C2 cells retrieved from dosed mice
Assay type: in vivo, mouse (mouse (human H1299C2 cells in hollow fibers) H1299C2 cells in hollow fibers)
Conditions: H1299C2 cells in hollow fibers implanted s.c. in athymic nude mice; single intravenous dose 50, 25 or 12.5 mg/kg; Fibers retrieved 24 hours after dosing; p<0.01, one tailed Student t-test
Description: A human lung cancer cell line, H1299, is obtained from the American Type Culture Collection, ATCC, Rockville, Md.) and cultured in the RPMI 1640 medium supplemented with 10% heat-inactivated Fetal Bovine Serum (Life Technologies, Grand Island, N.Y.). Cells harvested at approx. 85% confluency are washed with ice cold phosphate buffered saline (PBS) and suspended in the ice cold PBS at a concentration of 2×10^7 cells/mL. One half of one mL of the cell suspension is used for transfection with 10 μg of p21^WAF1/Clp1 luciferase plasmid and NeotetR selectable marker. Transfection is performed by electroporation at […]. Cells are then plated in the above medium containing 0.4 mg/mL G-418 (Life Technologies, Grand Island, N.Y.). One colony is selected, diluted to one cell/well and a single clone is expanded to generate p21^WAF1/Clp1 promoter-luciferase stable cell line designated H1299C2. The cell line tests negative for Mycoplasma contamination (Rapid Detection System by Gen-Probe, Inc., San Diego, Calif.) and for Mouse Antibody Production (MA BioServices, Inc., Rockville, Md.).
The H1299C2 cell line is propagated and expanded for implantation in RPMI 1640 medium containing 10% heat-inactivated Fetal Bovine Serum (Life Technologies, Grand Island, N.Y.) in a cell culture incubator, at 37° C. with humidified atmosphere, containing 5% CO2. […]

SMILES	expression of the reporter gene (firefly luciferase) in vivo as judged by registered light emission from the Fibers
O=C(/C=C/c1ccc(CN(CCO)CCc2c[nH]c3ccccc23)cc1)NO [compound 1, N-hydroxy-3-[4-[[(2-hydroxyethyl)[2-(1H-indol-3-yl)-ethyl]-amino]methyl]phenyl]-2E-2-propenamide]	statistically significant (p<0.01, one tailed Student t-test) and reproducible expression of the reporter gene
Cc1[nH]c2ccccc2c1CCNCc1ccc(/C=C/C(=O)NO)cc1 [compound 2, N-hydroxy-3-[4-[[[2-(2-methyl-1H-indol-3-yl)-ethyl]-amino]methyl]phenyl]-2E-2-propenamide]	statistically significant (p<0.01, one tailed Student t-test) and reproducible expression of the reporter gene

Test system: various tumor cell lines
Assay: Present method: tumor cells in implanted encapsulation device, response to antitumor agents
Assay type: in vivo
Conditions: not given
Source text: The present method can be utilized as a first line screen to test potential drug candidates for in vivo efficacy.

SMILES	activity when tested on various tumor cell lines with the present method
CO[C@@]12[C@H](COC(N)=O)C3=C(C(=O)C(C)=C(N)C3=O)N1C[C@@H]1N[C@@H]12 [mitomycin C]	significant activity
COc1cccc2c1C(=O)c1c(O)c3c(c(O)c1C2=O)C[C@@](O)(C(=O)CO)C[C@@H]3O[C@H]1C[C@H](N)[C@H](O)[C@H](C)O1 [doxorubicin]	significant activity
CC[C@]1(O)C[C@H]2CN(CCc3c([nH]c4ccccc34)[C@@](C(=O)OC)(c3cc4c(cc3OC)N(C=O)[C@H]3[C@@](O)(C(=O)OC)[C@H](OC(C)=O)[C@]5(CC)C=CCN6CC[C@]43[C@@H]65)C2)C1 [vincristine]	significant activity
CC(=O)O[C@H]1C(=O)[C@@]2(C)[C@H]([C@H](OC(=O)c3ccccc3)[C@]3(O)C[C@H](OC(=O)[C@H](O)[C@@H](NC(=O)c4ccccc4)c4ccccc4)C(C)=C1C3(C)C)[C@]1(OC(C)=O)CO[C@@H]1C[C@@H]2O [paclitaxel]	significant activity
O=C1c2c(O)ccc(O)c2C(=O)c2c(NCCNCCO)ccc(NCCNCCO)c21 [mitoxantrone]	significant activity
COc1cc([C@@H]2c3cc4c(cc3[C@@H](O[C@@H]3O[C@@H]5CO[C@@H](C)O[C@H]5[C@H](O)[C@H]3O)[C@H]3COC(=O)[C@H]23)OCO4)cc(OC)c1O [etoposide]	significant activity
N.N.[Cl][Pt][Cl] [cis-platinum]	significant activity
CC[C@@]1(O)C(=O)OCc2c1cc1n(c2=O)Cc2cc3ccccc3nc2-1 [camptothecin]	significant activity
O=c1[nH]cc(F)c(=O)[nH]1 [5-fluorouracil]	significant activity
